# pIC50: −log10 of the molar value.
# Biological target: T1, Oligopeptidase B (OPB) (Leishmania major, UniProt Q4QHU7)
# T1 sequence (Q4QHU7 1-731): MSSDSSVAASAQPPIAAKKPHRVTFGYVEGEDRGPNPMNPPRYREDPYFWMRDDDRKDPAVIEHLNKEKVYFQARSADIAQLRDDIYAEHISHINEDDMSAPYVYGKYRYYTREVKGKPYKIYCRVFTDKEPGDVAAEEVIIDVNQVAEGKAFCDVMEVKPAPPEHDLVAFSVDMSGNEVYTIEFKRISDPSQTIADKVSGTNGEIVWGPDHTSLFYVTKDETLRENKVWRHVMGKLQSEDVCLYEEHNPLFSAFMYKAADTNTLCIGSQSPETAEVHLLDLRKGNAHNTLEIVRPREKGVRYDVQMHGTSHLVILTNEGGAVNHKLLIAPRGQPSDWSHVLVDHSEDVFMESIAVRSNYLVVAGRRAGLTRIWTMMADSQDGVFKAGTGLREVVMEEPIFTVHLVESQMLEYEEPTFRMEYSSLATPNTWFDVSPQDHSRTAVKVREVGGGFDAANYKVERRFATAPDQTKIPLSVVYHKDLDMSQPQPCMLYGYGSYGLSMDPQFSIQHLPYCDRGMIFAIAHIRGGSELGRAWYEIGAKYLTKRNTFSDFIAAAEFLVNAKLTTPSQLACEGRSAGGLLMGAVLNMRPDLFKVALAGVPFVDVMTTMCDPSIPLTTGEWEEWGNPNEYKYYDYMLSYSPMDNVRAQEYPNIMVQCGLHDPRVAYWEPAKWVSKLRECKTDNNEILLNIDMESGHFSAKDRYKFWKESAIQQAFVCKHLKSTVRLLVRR
# Test: inhibition of Bz-R-AMC cleavage in live promastigotes
# Assay type: cell-based
structure (smiles),measurement,value
NCCc1ccc(S(=O)(=O)F)cc1 [AEBSF],pIC50,4.84
